The text below walks through data of PubChem BioAssay AID179 (DTP/NCI, 2004).

In general, EC50 refers to the concentration needed to bring the measured effect to its halfway point. For orientation: IC50 means the concentration that inhibits the measured activity by half.

The subject of the test is CEM cells HIV-1 protection, formazan growth assay. Kind of test: NCI AIDS Antiviral Assay. The settings on record: for IC50: measured here: growth of uninfected CEM cells. A digest of the protocol: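 Human CEM cells, uninfected and HIV-1-infected, received five drug concentrations, and growth was read by soluble formazan assay. Compounds giving at least 50% protection were retested; reproducible 100% protection defined confirmed active.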

The source made the active and inactive calls.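 Rule for the calls: active = compounds giving half or more protection of infected cells from virus-caused growth loss, again on retest; inactive = the rest.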 Where a SMILES comes first, the peptide text is derived from it. Bridges are numbered along the chain shown (N, C = ends). [ ]: non-standard residue; d: D form. Orn = NCCC[CH](N)C(=O)O

Take `CCOC(=O)c1c2cccccc2n2c(=O)cc(C)nc12`: the result was inactive.

On to `O=S(=O)(NC1CCC[C@H]1O)c1ccccc1` (some centres not stated), for which the outcome was inactive.

Regarding `Cc1nc(C(N)=S)sc1C(=O)CC(=O)C(=O)Nc1nc2ccccc2[nH]1`, the EC50 was greater than 93.3 µM and the IC50 was greater than 93.3 µM.

On to `CS(=O)(=O)OCCN1CCN(C(=O)c2cccc3c(Nc4ccc(S(=O)(=O)N=C(N)N)cc4)c4ccccc4nc23)CC1`, for which the EC50 is greater than 35.5 µM and the IC50 is greater than 35.5 µM.

Regarding `N#C/C(=C\c1ccccc1[N+](=O)[O-])c1ccccc1`, the EC50 was greater than 5.75 µM and the IC50 is greater than 5.75 µM.

For the compound `Nc1nc(NCCOCP(=O)(O)O)c(C=O)c(=O)[nH]1`, the EC50 was greater than 200 µM and the half-inhibitory concentration (IC50) is greater than 200 µM.

As for `CN(C)Cc1cc(N=Nc2ccccc2Cl)ccc1O`, the EC50 was greater than 20 µM and the IC50 was determined as 10.2 µM.

In the case of `COC(=O)c1c2c(cc3c1CCC3)CCC2`, the EC50 was greater than 200 µM and the IC50 is greater than 200 µM.

Consider `Cc1cc(N)c2cc(NC(=O)CCCCCCCCC(=O)Nc3ccc4nc(C)cc(N)c4c3)ccc2n1`, for which the outcome was inactive.

In the case of `COc1cc(/C=C2\Cc3ccccc3C2=O)cc(OC)c1OC`, the EC50 is greater than 23.4 µM and the IC50 is greater than 23.4 µM.

On to `NC(=O)C1CC(=O)NCCCC(NC(=O)C(N)Cc2ccc(O)cc2)C(=O)NC(Cc2ccccc2)C(=O)N1` (configuration not stated) (H-Y[Orn]FD-NH2; lactam 2-4; configuration not given here), for which the EC50 was greater than 100 µM and the half-maximal inhibitory concentration (IC50) was greater than 100 µM.

Turning to `CS(=O)(=O)c1ccc(/C=C2/C=Cc3ccccc32)cc1`, the EC50 is greater than 25.7 µM and the IC50 is greater than 25.7 µM.

Consider `COC(=O)C(C)NC(=O)c1ccccc1SC(=O)CCCC[n+]1ccccc1` (configuration not stated), for which the EC50 is greater than 200 µM and the IC50 worked out at 2.4 µM.

For the compound `CC1=NN2C(=N)/C(=C/c3ccco3)C(=O)N=C2S1`, the EC50 was greater than 200 µM and the IC50 is greater than 200 µM.

As to `O=C(O)c1[nH]c(=O)[nH]c(=O)c1I`, the EC50 is greater than 200 µM and the IC50 is greater than 200 µM.

As to `OC[C@@H]1C[C@H](F)[C@H](n2cnc3c(Cl)ncnc32)O1`, the EC50 is greater than 575 µM and the IC50 is 26.3 µM.

Take `CC(=O)C1CC[C@@H](C)[C@@H]2CC[C@@]3(C)OO[C@@]12[C@H](OC=O)O3` (some centres not stated): the EC50 is greater than 200 µM and the IC50 was 27.5 µM.

As for `Nc1nnc(-c2ccccc2S)o1`, the EC50 was greater than 63.1 µM and the 50% inhibitory concentration (IC50) amounted to 26.9 µM.

For the compound `O=C1C2C=CC1C1C(=O)OC(=O)C21` (configuration not stated), the result was inactive.

Regarding `COc1ccc2c(c1)C1=C(CC2)C(=O)OC1=O`, the result was inactive.

As for `CC1(C)CC(=O)C2=C(C1)C(c1ccccc1Cl)C1C(=O)CC(C)(C)CC1(O)O2` (configuration not stated), the EC50 was greater than 200 µM and the half-maximal inhibitory concentration (IC50) is 28.8 µM.

Turning to `CNC(=O)CN(CC(=O)O)C(=O)NC`, the EC50 was greater than 1230 µM and the IC50 is greater than 1230 µM.

As to `Cn1cc(C2(C)CC(C)(C)c3c2n(C)c2ccccc32)c2ccccc21` (configuration not stated), the EC50 is greater than 55 µM and the IC50 was found to be 47.9 µM.

For the compound `CC(C)CCC[C@@H](C)C1CCC2[C@@H]3CC=C4C[C@@H](OS(=O)(=O)O)CC[C@]4(C)C3CC[C@@]21C` (some centres not stated), the result was active.

Turning to `CN1C(=O)c2ccccc2C2(O)c3ccccc3-c3ccccc3C12O` (configuration not stated), the EC50 was greater than 20 µM and the IC50 turned out to be 4.47 µM.

Regarding `Cc1ccc(C(=O)CC(O)(C(F)(F)F)C(F)(F)F)cc1[N+](=O)[O-]`, the EC50 was greater than 200 µM and the IC50 stood at 6.61 µM.

For the compound `Fc1cccc(F)c1C1SCc2nc3ncccc3n21` (configuration not stated), the EC50 was 39.8 µM and the IC50 was determined as 61.7 µM.

With `COc1cc2ccc3c4cc(OC)c(OCc5ccccc5)cc4cnc3c2cc1OC`, the outcome was inactive.

Consider `COc1ccc(NC(=O)CC/C(CC(=O)c2ccco2)=N/NC(N)=S)cc1`, for which the outcome was inactive.

For `Cc1ccc2c(c1)CC1(Cc3ccccc3C1=O)C2=O` (configuration not stated), the EC50 is greater than 200 µM and the IC50 was 195 µM.
